Reference: patent publication US6340689B1 (priority 1999, dated 2002)

Experiments:
[1] = test system: Erythromycin-resistant L. pneumophila; type: cell-based, Legionella pneumophila
[2] = test system: Erythromycin-resistant Legionella spp. other than L. pneumophila; type: cell-based

Row | Structure (SMILES) | Mean PAE [1] [h] | PAE (mean PAE) [1] [h] | Mean PAE [2] [h] | PAE [1] [h]
1 | CO/N=C1\CN(c2nc3c(cc2F)c(=O)c(C(=O)O)cn3C2CC2)CC1CN (racemic) [Gemifloxacin, (R,S)-7-(3-aminomethyl-4-methoxyiminopyrrolidin-1-yl)-1-cyclopropyl-6-fluoro-4-oxo-1,4-dihydro-1,8-naphthyridine-3-carboxylic acid] | 4.65 ± 3 | 4.65 | 3.34 ± 2 | 
2 | CC[C@H]1OC(=O)[C@H](C)[C@@H](O[C@H]2C[C@@](C)(OC)[C@@H](O)[C@H](C)O2)[C@H](C)[C@@H](O[C@@H]2O[C@H](C)C[C@H](N(C)C)[C@H]2O)[C@](C)(O)C[C@@H](C)CN(C)[C@H](C)[C@@H](O)[C@]1(C)O [Azithromycin] | 2.16 ± 1 |  | 2.13 ± 1 | 
3 | O=C(O)c1cn(C2CC2)c2cc(N3CCNCC3)c(F)cc2c1=O [Ciprofloxacin] | 2.86 ± 2 |  | 2.13 ± 3 | 
4 | CC[C@H]1OC(=O)[C@H](C)[C@@H](O[C@H]2C[C@@](C)(OC)[C@@H](O)[C@H](C)O2)[C@H](C)[C@@H](O[C@@H]2O[C@H](C)C[C@H](N(C)C)[C@H]2O)[C@](C)(OC)C[C@@H](C)C(=O)[C@H](C)[C@@H](O)[C@]1(C)O [Clarithromycin] | 1.90 ± 1 |  | 1.60 ± 2 | 1.9
5 | CC[C@H]1OC(=O)[C@H](C)[C@@H](O[C@H]2C[C@@](C)(OC)[C@@H](O)[C@H](C)O2)[C@H](C)[C@@H](O[C@@H]2O[C@H](C)C[C@H](N(C)C)[C@H]2O)[C@](C)(O)C[C@@H](C)C(=O)[C@H](C)[C@@H](O)[C@]1(C)O [Erythromycin] | 0.90 ± 1 |  | 0.44 ± 1 | 
6 | Cc1c(F)c(N2CCNC(C)C2)cc2c1c(=O)c(C(=O)O)cn2C1CC1 (centres unmarked) [Grepafloxacin] | 4.18 ± 3 | 4.18 | 3.67 ± 1 | 
7 | C[C@H]1COc2c(N3CCN(C)CC3)c(F)cc3c(=O)c(C(=O)O)cn1c23 [Levofloxacin] | 2.59 ± 2 |  | 3.24 ± 1 | 2.59
8 | COc1c(N2C[C@@H]3CCCN[C@@H]3C2)c(F)cc2c(=O)c(C(=O)O)cn(C3CC3)c12 [Moxifloxacin] | 3.38 ± 2 | 3.38 | 2.02 ± 1 | 
9 | CC1COc2c(N3CCN(C)CC3)c(F)cc3c(=O)c(C(=O)O)cn1c23 (centres unmarked) [Ofloxacin] | 2.99 ± 1 |  | 4.13 ± 2 | 
10 | CO[C@H]1/C=C/O[C@@]2(C)Oc3c(C)c(O)c4c(O)c(c(/C=N/N5CCN(C)CC5)c(O)c4c3C2=O)NC(=O)/C(C)=C\C=C\[C@H](C)[C@H](O)[C@@H](C)[C@@H](O)[C@@H](C)[C@H](OC(C)=O)[C@@H]1C [Rifampicin] | 0.93 ± 4 |  | 5.6 ± 3 | 0.9
11 | N[C@@H]1[C@H]2CN(c3nc4c(cc3F)c(=O)c(C(=O)O)cn4-c3ccc(F)cc3F)C[C@@H]12 [Trovafloxacin] | 2.83 ± 2 | 2.83 | 2.25 ± 2 | 
